Data: PubChem BioAssay (NCI)
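All cell lines were grown in 96-well plates and treated with compound for 48 hours. GI50 = concentration required for 50% inhibition of growth. TGI: concentration producing complete growth inhibition.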

How the values were obtained:
Experiment in all cases: NCI-60 cell line screen, 48 h
786-0 renal = system: 786-0 renal
A498 renal = system: A498 renal
A549 NSCLC = system: A549 NSCLC
ACHN renal = system: ACHN renal
CAKI-1 renal = system: CAKI-1 renal
CCRF-CEM leukemia = system: CCRF-CEM leukemia
COLO 205 colon = system: COLO 205 colon
DU-145 prostate = system: DU-145 prostate
EKVX NSCLC = system: EKVX NSCLC
HCC-2998 colon = system: HCC-2998 colon
HCT-116 colon = system: HCT-116 colon
HCT-15 colon = system: HCT-15 colon
HL-60(TB) leukemia = system: HL-60(TB) leukemia
HOP-62 NSCLC = system: HOP-62 NSCLC
HOP-92 NSCLC = system: HOP-92 NSCLC
HS 578T breast = system: HS 578T breast
IGROV1 ovarian = system: IGROV1 ovarian
K-562 leukemia = system: K-562 leukemia
KM12 colon = system: KM12 colon
LOX IMVI melanoma = system: LOX IMVI melanoma
M14 melanoma = system: M14 melanoma
MALME-3M melanoma = system: MALME-3M melanoma
MCF7 breast = system: MCF7 breast
MDA-MB-231 breast = system: MDA-MB-231 breast
MDA-MB-435 = system: MDA-MB-435
MOLT-4 leukemia = system: MOLT-4 leukemia
NCI-H226 lung = system: NCI-H226 lung
NCI-H23 lung = system: NCI-H23 lung
NCI-H460 lung = system: NCI-H460 lung
NCI/ADR-RES ovarian = system: NCI/ADR-RES ovarian
OVCAR-3 ovarian = system: OVCAR-3 ovarian
OVCAR-4 ovarian = system: OVCAR-4 ovarian
OVCAR-5 ovarian = system: OVCAR-5 ovarian
OVCAR-8 ovarian = system: OVCAR-8 ovarian
PC-3 prostate = system: PC-3 prostate
RPMI-8226 leukemia = system: RPMI-8226 leukemia
RXF 393 renal = system: RXF 393 renal
SF-268 CNS = system: SF-268 CNS
SF-295 CNS = system: SF-295 CNS
SF-539 CNS = system: SF-539 CNS
SK-MEL-28 melanoma = system: SK-MEL-28 melanoma
SK-MEL-5 melanoma = system: SK-MEL-5 melanoma
SK-OV-3 ovarian = system: SK-OV-3 ovarian
SNB-19 CNS = system: SNB-19 CNS
SNB-75 CNS = system: SNB-75 CNS
SR leukemia = system: SR leukemia
SW-620 colon = system: SW-620 colon
T-47D breast = system: T-47D breast
U251 CNS = system: U251 CNS
UACC-257 melanoma = system: UACC-257 melanoma
UACC-62 melanoma = system: UACC-62 melanoma
UO-31 renal = system: UO-31 renal
HT29 colon = system: HT29 colon
NCI-H522 lung = system: NCI-H522 lung
SK-MEL-2 melanoma = system: SK-MEL-2 melanoma
SN12C renal = system: SN12C renal
TK-10 renal = system: TK-10 renal

Nc1nc(N)c(N=Nc2ccccc2)c(-c2ccccc2)n1 was tested, and the GI50 (786-0 renal) was 5.98 µM, the TGI (786-0 renal) was 19.4 µM and the GI50 (A498 renal) was 2.07 µM. The TGI (A498 renal) was 11.4 µM, the GI50 (A549 NSCLC) was 6.85 µM and the TGI (A549 NSCLC) was 22.8 µM. For the same molecule, the GI50 (ACHN renal) was 4.49 µM, the TGI (ACHN renal) was 19 µM and the GI50 (CAKI-1 renal) was 3.57 µM. For the same molecule, the TGI (CAKI-1 renal) was 23.5 µM, the GI50 (CCRF-CEM leukemia) was 8.14 µM and the TGI (CCRF-CEM leukemia) was > 100 µM. It also gave a GI50 (COLO 205 colon) of 9.29 µM, a TGI (COLO 205 colon) of 25.8 µM and a GI50 (DU-145 prostate) of 9.9 µM. The TGI (DU-145 prostate) was 34.1 µM, the GI50 (EKVX NSCLC) was 3.75 µM and the TGI (EKVX NSCLC) was 30.8 µM. For the same molecule, the GI50 (HCC-2998 colon) was 14.3 µM, the TGI (HCC-2998 colon) was > 100 µM and the GI50 (HCT-116 colon) was 5.12 µM. It also gave a TGI (HCT-116 colon) of 18.3 µM, a GI50 (HCT-15 colon) of 5.95 µM and a TGI (HCT-15 colon) of 39.9 µM. The GI50 (HL-60(TB) leukemia) was 11.1 µM, the TGI (HL-60(TB) leukemia) was > 100 µM and the GI50 (HOP-62 NSCLC) was 4.25 µM. For the same molecule, the TGI (HOP-62 NSCLC) was 19.2 µM, the GI50 (HOP-92 NSCLC) was 1.45 µM and the TGI (HOP-92 NSCLC) was 9.95 µM. It also gave a GI50 (HS 578T breast) of 1.66 µM, a TGI (HS 578T breast) of 6.88 µM and a GI50 (IGROV1 ovarian) of 2.01 µM. The TGI (IGROV1 ovarian) was 22.2 µM, the GI50 (K-562 leukemia) was 10.3 µM and the TGI (K-562 leukemia) was > 100 µM. For the same molecule, the GI50 (KM12 colon) was 2.89 µM, the TGI (KM12 colon) was 14.5 µM and the GI50 (LOX IMVI melanoma) was 11 µM. It also gave a TGI (LOX IMVI melanoma) of 23.5 µM, a GI50 (M14 melanoma) of 12 µM and a TGI (M14 melanoma) of 34.6 µM. The GI50 (MALME-3M melanoma) was 4.33 µM, the TGI (MALME-3M melanoma) was 24.9 µM and the GI50 (MCF7 breast) was 0.362 µM. The TGI (MCF7 breast) was 18.1 µM, the GI50 (MDA-MB-231 breast) was 5.84 µM and the TGI (MDA-MB-231 breast) was 30.5 µM. The GI50 (MDA-MB-435) was 11.5 µM, the TGI (MDA-MB-435) was 29.5 µM and the GI50 (MOLT-4 leukemia) was 3.68 µM. It also gave a TGI (MOLT-4 leukemia) of 68.7 µM, a GI50 (NCI-H226 lung) of 4.19 µM and a TGI (NCI-H226 lung) of 19.4 µM. It also gave a GI50 (NCI-H23 lung) of 10.4 µM, a TGI (NCI-H23 lung) of 31.4 µM and a GI50 (NCI-H460 lung) of 4.16 µM. For the same molecule, the TGI (NCI-H460 lung) was 17.8 µM, the GI50 (NCI/ADR-RES ovarian) was 9.53 µM and the TGI (NCI/ADR-RES ovarian) was 53.1 µM. The GI50 (OVCAR-3 ovarian) was 10.4 µM, the TGI (OVCAR-3 ovarian) was 23 µM and the GI50 (OVCAR-4 ovarian) was 4.03 µM. It also gave a TGI (OVCAR-4 ovarian) of 20.7 µM, a GI50 (OVCAR-5 ovarian) of 6.47 µM and a TGI (OVCAR-5 ovarian) of 23.8 µM. The GI50 (OVCAR-8 ovarian) was 11.1 µM, the TGI (OVCAR-8 ovarian) was 37.4 µM and the GI50 (PC-3 prostate) was 3.02 µM. It also gave a TGI (PC-3 prostate) of 20.8 µM, a GI50 (RPMI-8226 leukemia) of 7.98 µM and a TGI (RPMI-8226 leukemia) of 46 µM. It also gave a GI50 (RXF 393 renal) of 3.42 µM, a TGI (RXF 393 renal) of 15.4 µM and a GI50 (SF-268 CNS) of 5.86 µM. For the same molecule, the TGI (SF-268 CNS) was 66.8 µM, the GI50 (SF-295 CNS) was 3.18 µM and the TGI (SF-295 CNS) was 18.6 µM. The GI50 (SF-539 CNS) was 6.39 µM, the TGI (SF-539 CNS) was 21.1 µM and the GI50 (SK-MEL-28 melanoma) was 11.3 µM. For the same molecule, the TGI (SK-MEL-28 melanoma) was 28.2 µM, the GI50 (SK-MEL-5 melanoma) was 3.74 µM and the TGI (SK-MEL-5 melanoma) was 20.3 µM. For the same molecule, the GI50 (SK-OV-3 ovarian) was 4.4 µM, the TGI (SK-OV-3 ovarian) was 17.5 µM and the GI50 (SNB-19 CNS) was 12.5 µM. It also gave a TGI (SNB-19 CNS) of 43.3 µM, a GI50 (SNB-75 CNS) of 1.41 µM and a TGI (SNB-75 CNS) of 7.8 µM. For the same molecule, the GI50 (SR leukemia) was 4.54 µM, the TGI (SR leukemia) was 73.3 µM and the GI50 (SW-620 colon) was 12.8 µM. It also gave a TGI (SW-620 colon) of 27.2 µM, a GI50 (T-47D breast) of 0.487 µM and a TGI (T-47D breast) of 6.91 µM. For the same molecule, the GI50 (U251 CNS) was 8.27 µM, the TGI (U251 CNS) was 26.8 µM and the GI50 (UACC-257 melanoma) was 13.7 µM. It also gave a TGI (UACC-257 melanoma) of 35.9 µM, a GI50 (UACC-62 melanoma) of 4.33 µM and a TGI (UACC-62 melanoma) of 20.1 µM. For the same molecule, the GI50 (UO-31 renal) was 2.54 µM and the TGI (UO-31 renal) was 24.7 µM.
Work on O=[N+]([O-])c1cc(Cl)c(Cl)cc1[N+](=O)[O-] yielded a TGI (786-0 renal) of 6.36 µM, a TGI (A498 renal) of 33 µM and a TGI (A549 NSCLC) of 4.97 µM. The TGI (ACHN renal) was 6.51 µM, the TGI (CAKI-1 renal) was 4.28 µM and the TGI (CCRF-CEM leukemia) was > 100 µM. The TGI (COLO 205 colon) was 26.5 µM, the TGI (DU-145 prostate) was 4.42 µM and the TGI (EKVX NSCLC) was 8.81 µM. For the same molecule, the TGI (HCT-116 colon) was > 100 µM, the TGI (HCT-15 colon) was 7.77 µM and the TGI (HOP-62 NSCLC) was 6.49 µM. It also gave a TGI (HS 578T breast) of 72.3 µM, a TGI (HT29 colon) of 26.9 µM and a TGI (IGROV1 ovarian) of 3.44 µM. For the same molecule, the TGI (K-562 leukemia) was 5.81 µM, the TGI (KM12 colon) was 13 µM and the TGI (LOX IMVI melanoma) was 4.74 µM. It also gave a TGI (M14 melanoma) of 8.8 µM, a TGI (MALME-3M melanoma) of 5.83 µM and a TGI (MCF7 breast) of 4.85 µM. The TGI (MDA-MB-231 breast) was 4.38 µM, the TGI (MDA-MB-435) was 12.8 µM and the TGI (MOLT-4 leukemia) was 0.797 µM. It also gave a TGI (NCI-H226 lung) of 11 µM, a TGI (NCI-H23 lung) of 4.83 µM and a TGI (NCI-H460 lung) of 12.3 µM. It also gave a TGI (NCI-H522 lung) of 3.36 µM, a TGI (OVCAR-3 ovarian) of 3.22 µM and a TGI (OVCAR-4 ovarian) of 4.63 µM. For the same molecule, the TGI (OVCAR-5 ovarian) was 5.21 µM, the TGI (OVCAR-8 ovarian) was 5.99 µM and the TGI (PC-3 prostate) was 3.94 µM. The TGI (RPMI-8226 leukemia) was 15.2 µM, the TGI (RXF 393 renal) was 3.48 µM and the TGI (SF-268 CNS) was 3.66 µM. It also gave a TGI (SF-295 CNS) of 5.23 µM, a TGI (SF-539 CNS) of 4.68 µM and a TGI (SK-MEL-2 melanoma) of 4.74 µM. The TGI (SK-MEL-28 melanoma) was 6.04 µM, the TGI (SK-MEL-5 melanoma) was 29.2 µM and the TGI (SN12C renal) was 3.52 µM. It also gave a TGI (SNB-75 CNS) of 9.32 µM, a TGI (SR leukemia) of 4.98 µM and a TGI (SW-620 colon) of 7.73 µM. The TGI (T-47D breast) was 6.63 µM, the TGI (TK-10 renal) was 12.3 µM and the TGI (U251 CNS) was 3.82 µM. The TGI (UACC-257 melanoma) was 4.1 µM, the TGI (UACC-62 melanoma) was 4.42 µM and the TGI (UO-31 renal) was 3.62 µM.
